The data set is described as follows: solvent given as SMILES.

With `C1=CCCCC1`, the “solvation free energy, 298 K” value (in C1CCC2CCCCC2C1) was -4.21 kcal/mol; the “solvation free energy, 298 K” value (in C1CCC(C2CCCCC2)CC1) was -4.18 kcal/mol; the “solvation free energy, 298 K” value (in CC#N) was -3.43 kcal/mol; the “solvation free energy, 298 K” value (in CC(=O)N(C)C) was -3.48 kcal/mol; the “solvation free energy, 298 K” value (in CCC(C)=O) was -4 kcal/mol; the “solvation free energy, 298 K” value (in CCCCCCCCO) is -3.86 kcal/mol. Moreover, the “solvation free energy, 298 K” value was -4.37 kcal/mol (in CCCCCl); -3.89 kcal/mol (in CCCCN(C=O)CCCC); -3.79 kcal/mol (in CCN1CCCC1=O); -3.85 kcal/mol (in CCN(CC)C(C)=O); -3.67 kcal/mol (in CCNC(C)=O); -3.52 kcal/mol (in CCNC=O). Besides, the “solvation free energy, 298 K” value was -3.7 kcal/mol (in CN1CCCC1=O); -3.75 kcal/mol (in CN1CCCCC1=O); -3.66 kcal/mol (in CN(C)C=O); -3.52 kcal/mol (in CNC(C)=O); -3.26 kcal/mol (in CNC=O); -3.48 kcal/mol (in COCCO). The “solvation free energy, 298 K” value (in CS(C)=O) was -3.13 kcal/mol; the “solvation free energy, 298 K” value (in N#Cc1ccccc1) was -3.95 kcal/mol; the “solvation free energy, 298 K” value (in NC=O) was -1.87 kcal/mol; the “solvation free energy, 298 K” value (in O) is 0.36 kcal/mol; the “solvation free energy, 298 K” value (in O=CN1CCOCC1) was -3.21 kcal/mol; the “solvation free energy, 298 K” value (in OCCO) is -2 kcal/mol. The “solvation free energy, 298 K” value is -2.63 kcal/mol (in OCCOCCO); -2.73 kcal/mol (in OCCOCCOCCO); -4.28 kcal/mol (in c1ccc2c(c1)CCCC2); -4.19 kcal/mol (in c1ccc(C2CCCCC2)cc1); -4.47 kcal/mol (in c1ccccc1).

As for `CCCCN(CC)c1c([N+](=O)[O-])cc(C(F)(F)F)cc1[N+](=O)[O-]`, the “solvation free energy, 298 K” value (in O) is -3.51 kcal/mol.

For the compound `Clc1cc(Cl)c2c(c1Cl)Oc1ccccc1O2`, the “solvation free energy, 298 K” value (in O) was -4.05 kcal/mol.

Take `C=CCCCC=C`: the “solvation free energy, 298 K” value is, setting by setting: (in CCCCOC(C)=O) -4.42 kcal/mol; (in CCOC(C)=O) -4.6 kcal/mol; (in O) 1.16 kcal/mol.

In the case of `CCCC=CC=O`, the “solvation free energy, 298 K” value (in O) is -3.68 kcal/mol.

As to `CCCCCCCCCCCCc1ccccc1`, the “solvation free energy, 298 K” value is -11.5 kcal/mol (in CCC(C)=O); -11.8 kcal/mol (in CCCCCCC); -10 kcal/mol (in CCO); -10.4 kcal/mol (in O=Cc1ccco1); -7.69 kcal/mol (in OCCOCCO).

With `FCCl`, the “solvation free energy, 298 K” value (in O) is -0.77 kcal/mol.

In the case of `CC(C)OC(C)C`, the “solvation free energy, 298 K” value reads like this: (in Brc1cccc2ccccc12) -3.49 kcal/mol; (in CC(=O)N(C)C) -3.41 kcal/mol; (in CC(=O)OCc1ccccc1) -3.49 kcal/mol; (in CC(C)CC(C)(C)C) -3.78 kcal/mol; (in CCC(C)=O) -3.9 kcal/mol; (in CCC(C)Cl) -4.16 kcal/mol. For the same compound, the “solvation free energy, 298 K” value reads like this: (in CCC(C)O) -3.75 kcal/mol; (in CCCCCCCC) -3.84 kcal/mol; (in CCCCCCCCCCO) -3.43 kcal/mol; (in CCCCCCCCO) -3.63 kcal/mol; (in CCCCCl) -4.18 kcal/mol; (in CCCCN(C=O)CCCC) -3.48 kcal/mol. Also, the “solvation free energy, 298 K” value runs as follows: (in CCCCO) -3.75 kcal/mol; (in CCCO) -3.79 kcal/mol; (in CCN1CCCC1=O) -3.23 kcal/mol; (in CCN(CC)C(C)=O) -3.51 kcal/mol; (in CCNC(C)=O) -3.33 kcal/mol; (in CCNC=O) -3.23 kcal/mol. Further, the “solvation free energy, 298 K” value is, setting by setting: (in CN1CCCCC1=O) -3.27 kcal/mol; (in CN(C)C=O) -3.19 kcal/mol; (in CNC(C)=O) -3.25 kcal/mol; (in CNC=O) -3.04 kcal/mol; (in CO) -3.82 kcal/mol; (in ClC(Cl)(Cl)Cl) -4.23 kcal/mol. For the same compound, the “solvation free energy, 298 K” value was -1.56 kcal/mol (in [2H]O[2H]) and -3.45 kcal/mol (in c1ccc2ncccc2c1).

For `ClC(Br)Br`, the “solvation free energy, 298 K” value (in CCCCCCCCO) is -4.9 kcal/mol.

`CCCCCCCCCC(=O)OC`: the “solvation free energy, 298 K” value (in O) is -1.91 kcal/mol.

With `CN`, the “solvation free energy, 298 K” value is -1.64 kcal/mol (in CCCCCC); -2.89 kcal/mol (in CCCCO); -2.66 kcal/mol (in CN(C)C=O); -2.33 kcal/mol (in ClC(Cl)(Cl)Cl); -3.16 kcal/mol (in ClC(Cl)Cl); -4.56 kcal/mol (in O).

For the compound `CCc1ccc(CC)cc1`, under “in CC(C)(C)O”, the “solvation free energy, 298 K” value was -6.3 kcal/mol.

Take `O=[N+]([O-])c1ccccc1`: the “solvation free energy, 298 K” value runs as follows: (in CCCCCC) -6.09 kcal/mol; (in CCCCCCC) -6.14 kcal/mol; (in CCCCCCCCCCCCCCCC) -6.12 kcal/mol; (in O) -4.23 kcal/mol.

For the compound `CCCOC(=O)c1ccccc1C(=O)OCCC`, the “solvation free energy, 298 K” value (in O) is -7.56 kcal/mol.

On to `CCNc1nc(NCC)nc(OC)n1`, for which, under “in O”, the “solvation free energy, 298 K” value is -10.6 kcal/mol.

In the case of `CCCCCC(C)=O`, the “solvation free energy, 298 K” value (in CC(C)CCCC(C)CCCC(C)CCCCC(C)CCCC(C)CCCC(C)C) was -4.99 kcal/mol; the “solvation free energy, 298 K” value (in CCCCCC) was -5.36 kcal/mol; the “solvation free energy, 298 K” value (in CCCCCCC) is -5.22 kcal/mol; the “solvation free energy, 298 K” value (in CCCCCCCC) was -5.25 kcal/mol; the “solvation free energy, 298 K” value (in CCCCCCCCCC) is -5.18 kcal/mol; the “solvation free energy, 298 K” value (in CCCCCCCCCCCCCCCC) is -5.06 kcal/mol. Also, the “solvation free energy, 298 K” value by setting is: (in CCCCCCCCO) -5.65 kcal/mol; (in CCCCOCCCC) -5.73 kcal/mol; (in CO) -5.98 kcal/mol; (in NC=O) -4.75 kcal/mol; (in O) -3.09 kcal/mol; (in [2H]O[2H]) -3.07 kcal/mol.

`CCCCN(CCCC)N=O`: the “solvation free energy, 298 K” value is, setting by setting: (in CC(C)CC(C)(C)C) -7.84 kcal/mol; (in O) -4.91 kcal/mol.

With `CCCCCCCCCCCC(=O)OC`, under “in O”, the “solvation free energy, 298 K” value is -2.91 kcal/mol.

Regarding `CC1=CCC2(C(C)C)CC12` (configuration not stated), the “solvation free energy, 298 K” value (in O) stood at 0.5 kcal/mol.

For the compound `COC(=O)c1ccc(N)cc1`, the “solvation free energy, 298 K” value (in CCCO) is -11.1 kcal/mol.

Regarding `Cc1cccs1`, under “in O”, the “solvation free energy, 298 K” value is -1.38 kcal/mol.

On to `COC(=O)c1ccc(OC)cc1`, for which the “solvation free energy, 298 K” value (in O) was -5.33 kcal/mol.

`CC(C)C(C)c1ccc(CC(=O)O)cc1` (configuration not stated): the “solvation free energy, 298 K” value (in O) is -7.99 kcal/mol.

(Values after the CombiSolv-Exp solvation set (Vermeire and Green 2021).)
